Experimental data published in patent US7476767B2, “Alpha-hydroxy sulfonate aldehydes, germicidal compositions containing the alpha-hydroxy sulfonate aldehydes, or mixtures of alpha-hydroxy sulfonate aldehydes and phthalaldehydes, and methods of using the compounds or compositions for disinfection or sterilization” (Ethicon, Inc., priority 2004, dated 2009).

How the values were obtained:
[1] = test system: Mycobacterium terrae bacteria; assay: Bacterial suspension test; type: cell-based; conditions: for Log Reductions/mL: 20° C.; for Germicidal Efficacy: Table 14 summary
Experimental: In this test method, 9 mL of the germicide to be tested is placed in a tube, put into a water bath and allowed to come to the desired temperature. One mL of the test organism, including at least 7 logs/mL of Mycobacterium terrae bacteria, is added to the 9 mL of the germicide to be tested. […] It will be appreciated by those skilled in the art that other concentrations may be utilized by proper dilution and accounting. At appropriate time intervals, 1 mL aliquots of the germicide-cell suspension were removed and added directly into 9 mL of a 1% glycine solution (neutralizer) and mixed thoroughly to neutralize the germicide in the transferred suspension. The glycine solution was prepared from solid glycine, which is available from VWR Scientific Products, among others. The above-identified 10 mL neutralized solution was then poured through a membrane filter having an average pore size of 0.45 micrometers. The filter was then rinsed twice with at least 150 mL of the 1% glycine solution per rinse. The filter was then placed on an agar plate and incubated for twenty-one days at 37° C. In the above procedure, if dilution was needed, then the 1 mL germicidal-cell suspension was diluted in 99 mL of a phosphate buffer before addition to the 9 mL of the 1% glycine solution. The phosphate buffer was DiLu-LoK™ Butterfields Phosphate Buffer, available from Hardy Diagnostics, of Santa Maria, Calif. The surviving colonies are then counted. The data is plotted as S/So vs. time. So is the initial count of the bacteria in the above 10 mL solution which is at least 10^6 bacteria/mL, and S is the surviving bacteria from the above filter on the agar plate. The results of the experiments were presented in terms of log reductions. Log reduction is the difference between log(So) and log(S). As one example, if log(So)=6.2, and if there were 100 survivors, then the log(S)=2, and the log reduction was reported as 4.2.

Solubility in water = type: physicochemical

## 4-pyridinyl-propanedial
[1]; Saturated (~2.3% w/v), 5 min
  Log Reductions/mL: 4.0 log reductions/mL

## O=Cc1ccc(Br)cc1C=O [4-bromo-phthalaldehyde]
[1]; 0.1%, 30 min exposure
  Log Reductions/mL: Total Kill

## O=Cc1ccc(Cl)cc1C=O [4-chloro-phthalaldehyde]
[1]; 2.7 w/v % in 20% isopropanol, 5 min
  Log Reductions/mL: Total Kill

## O=Cc1ccc(F)cc1C=O [4-fluoro-phthalaldehyde]
[1]; 0.25%, 60 min exposure
  Log Reductions/mL: Total Kill

## O=Cc1ccccc1C(O)S(=O)(=O)[O-].[Na+] (centres unmarked) [(2-formyl-phenyl)-hydroxy-methane sulfonic acid,sodium salt]
[1]; 9.1%, 5 min
  Log Reductions/mL: Confluent

## O=Cc1cccc(C=O)c1 [IPA, isophthalaldehyde]
[1]; Table 11: 0.3%, dissolved in 20% isopropanol, 5 min
  Log Reductions/mL: Confluent
[1]
  Germicidal Efficacy: Poor
[1]; Table 15: 0.3%, dissolved in 20% isopropanol, 5 min
  Log Reductions/mL: Confluent

## O=Cc1ccccc1C=O [OPA, phthalaldehyde]
[1]
  Germicidal Efficacy: Good
Solubility in water
  solubility in water: about 5 % by weight

## O=Cc1ccc(C=O)cc1 [TPA, terephthalaldehyde]
[1]; 0.2%, dissolved in 20% isopropanol, 5 min
  Log Reductions/mL: Confluent
[1]
  Germicidal Efficacy: Poor

## O=CC(C=O)c1ccccc1 [phenyl-propanedial]
[1]; Table 15: ~1%, 5 min
  Log Reductions/mL: 4.5 log reductions/mL
Solubility in water
  solubility in water: about 1%
